# According to US20070173787A1, “Thin-film nitinol based drug eluting stent” (priority 2005, published 2007):
# Tests used:
# [1] = tested on: human coronary artery smooth muscle cells; experiment: Anti-proliferative activity in synchronized cultured human coronary artery smooth muscle cells stimulated with two percent fetal bovine serum; format: cell-based; settings: topotecan to 300 nanomolar (FIG. 64), etoposide to eight hundred nanomolar (FIG. 65), Panzem to 100 micromolar (FIG. 68)
# Text: (§1) The multiple curves represent various concentrations of topotecan ranging from zero to three hundred nanomolar concentrations.
# (§2) The multiple curves represent various concentrations of etoposide ranging from zero to eight hundred nanomolar concentrations.
# The multiple curves represent various concentrations of Panzem® ranging from zero to 100 micromolar concentrations.
# [2] = Cell viability assay (cytotoxicity); format: cell-based
# Text: as §1, §2
# [3] = tested on: human coronary artery smooth muscle cells; experiment: Anti-proliferative activity in non-synchronized cultured human coronary artery smooth muscle cells stimulated with two percent fetal bovine serum; format: cell-based; settings: for effect of addition on the anti-proliferative rapamycin dose response curve: mycophenolic acid zero to one thousand nanomolar (FIG. 52), cladribine zero to nine hundred nanomolar (FIG. 57)
# Text: The multiple curves represent various concentrations of mycophenolic acid ranging from zero to one thousand nanomolar concentrations.
# FIG. 58 illustrates, in graphical format, the anti-proliferative activity of cladribine in non-synchronized cultured human coronary artery smooth muscle cells stimulated with two percent fetal bovine serum.
# The multiple curves represent various concentrations of cladribine ranging from zero to nine hundred nanomolar concentrations.
# [4] = In vivo release kinetics from stent coatings in porcine pharmacokinetics studies
# Text: The topcoat is two hundred micro grams.
# The basecoat is applied to Bx Velocity® stents and implanted into Yorkshire pigs.
# Another critical parameter for the performance of the thrombus resistance of a device coated with cilostazol is the duration of the drug release from the coating. This is of particular significance in the two weeks after device implantation. […] The purpose of the porcine PK study is to assess the local pharmacokinetics of a drug eluting stent at a given implantation time. Normally three stents are implanted in three different coronary arteries in a pig for a given time point and then retrieved for total drug recovery analysis. The stents are retrieved at predetermined time points; namely, 1, 3 and 8 days. The stents are extracted and the total amount of drug remaining on the stents is determined by analysis utilizing HPLC (high performance liquid chromatography) for total drug amount. The difference between the original amount of drug on the stent and the amount of drug retrieved at a given time represents the amount of drug released in that period. The continuous release of drug into surrounding arterial tissue is what prevents the neointimal growth and restenosis in the coronary artery. A normal plot represents the percentage of total drug released (%, y-axis) vs. time of implantation (day, x-axis). […] In this exemplary configuration, the stent 8600 is coated with two layers. The first layer 8602 comprises a combination of sirolimus, cilostazol and a copolymer matrix of EVA/BMA. The second layer or diffusion overcoat 8604 comprises only BMA. More specifically, in this embodiment, the first layer 8602 comprises a combination of sirolimus and cilastazol that is forty-five (45) percent by weight of the total weight of the first layer 8602 and an EVA/BMA copolymer matrix that is fifty-five (55) percent by weight of the total weight of the first layer 8602. The diffusion overcoat comprises one hundred (100 μg) micrograms of BMA.
# Pigs are an established animal species for intravascular stent studies and accepted for such studies by the appropriate regulatory agencies. This in vivo study utilized male pigs of the species Sus Scrofa and strain Yoorkshire pigs. S.M.A.R.T.™ stents, available from Cordis Corporation, were placed into the iliac and femoral arteries, PALMAZ® GENESIS™ stents, available from Cordis Corporation, were placed in the renal arteries and CYPHER™ stents, available from Cordis Corporation, were placed in the coronary arteries.
# [5] = tested on: elastase-induced abdominal aortic aneurysms; experiment: Elastase-induced rat model of abdominal aortic aneurysm; format: in vivo; settings: 15 mg/kg/day; for inhibition of aortic dilatation induced by elastase perfusion: vs saline, FIG. 77
# Text: The following example is provided to assist in a further understanding of the present invention. The particular materials and conditions employed are intended to be further illustrative of the invention and are not limiting upon the reasonable scope thereof Male Wistar rats (350-400 g) were subjected to perfusion of an isolated segment of the infrarenal abdominal aorta with 50 units of porcine pancreatic elastase, using the method described by Anidjar et al. (Anidjar, S. Salzmann, J L, Generic, D, Lagneau, P, Camilleri, J P, and Michel, J B, “Elastase induced experimental aneurysms in rats,” Circulation 82:973-981 (1990); Halpern et al. (Halpern, V J. Liao, Nackman, G B, Gandhi, R H, Irizarry, E, Scholes, J V, Ramey, W G, and Tilson, M D, “The elastase infusion model of experimental aortic aneurysms: Synchrony of induction of endogenous protinases with matrix destruction and inflammatory cell response, “J. Vasc. Surg. […] Surg 23:336-346(1996)). This method is an accepted model for experimental induction of abdominal aortic aneurysms. The animals (n=6 rats in each group) were then treated with twice-daily subcutaneous injections of either saline vehicle (control), or various doses of doxycycline (Dox) or one of four different, non-antibiotic, chemically-modified tetracyclines (CMTs; CollaGenex, Inc., Newtown, Pa.). Aortic diameter (AD) was measured with microcalipers before and after elastase perfusion, and just prior to sacrifice on day 7. Abdominal aortic aneurysms were defined as an increase in final AD to at least twice that measured before perfusion (≥100% increase). Aortic tissues from two animals in each group were perfusion-fixed with 10% neutral buffered formalin, embedded in paraffin, and stained with Verhoeff-van Geisen (VVG) for elastin. Tissues from the remaining animals were extracted, normalized to total protein, and analyzed by gelatin substrate zymography as described (Thompson et al. 1995; Halpern et al. 1994; Petrinec 1996).
# [6] = Liquid formulations of water insoluble rapamycins: concentration (HPLC) and visual observation; format: physicochemical
# Text: In accordance with exemplary embodiments of the present invention, a series of liquid formulations were developed for the local or regional delivery of water insoluble compounds such as sirolimus and its analogs, including CCI-779, ABT-578 and everolimus, through weeping balloons and catheter injection needles. […] These liquid formulations increase the apparent solubility of the pharmacologically active but water insoluble compounds by two to four orders. of magnitude as compared to the solubility limits of the compounds in water. These liquid formulations rely on the use of a very small amount of organic solvents such as Ethanol (typically less than two percent) and a larger amount of safe-amphiphilic (of or relating to a molecule having-a polar; water soluble group attached to a non-polar, water insoluble […]) excipients such as polyethylene glycol (PEG 200, PEG 400) and vitamin E TPGS to enhance the solubility of the compounds. These liquid formulations of highly. water insoluble compounds are stable and readily flowable at room temperature. Certain excipients, such as Vitamin E TPGS and BHT may be utilized to enhance the storage stability of sirolimus compounds through their anti-oxidation properties. […]
compound,measurement,setting,value
COc1cc([C@@H]2c3cc4c(cc3[C@@H](O[C@@H]3O[C@@H]5CO[C@@H](C)O[C@H]5[C@H](O)[C@H]3O)[C@H]3COC(=O)[C@H]23)OCO4)cc(OC)c1O [etoposide],effect of addition on the anti-proliferative rapamycin dose response curve,[1],increases the percent inhibition of rapamycin alone
same,cytotoxicity in cell viability assay,[2]; at concentrations up to ten micromolar,non-cytotoxic
COc1c(C)c2c(c(O)c1C/C=C(\C)CCC(=O)O)C(=O)OC2 [mycophenolic acid],effect of addition on the anti-proliferative rapamycin dose response curve,[3],potentiates the anti-proliferative activity of rapamycin
same,"in vivo release from the basecoat, comparison","[4]; EVA/BMA basecoat with rapamycin and mycophenolic acid, BMA topcoat, FIGS. 53, 54",elutes more completely over a shorter duration than the rapamycin
"C[C@H]1c2cccc(O)c2C(O)=C2C(=O)[C@]3(O)C(O)=C(C(N)=O)C(=O)C[C@@H]3[C@@H](O)[C@@H]21 [CMT-8, 6-α-deoxy-5-hydroxy-4-dedimethylaminotetracycline]",relative efficacy in suppressing aneurysmal dilatation compared to Dox at the same dose,[5],105%
same,inhibition of aortic dilatation induced by elastase perfusion,[5],statistically significant
CO[C@H]1C[C@@H]2CC[C@@H](C)[C@@](O)(O2)C(=O)C(=O)N2CCCC[C@H]2C(=O)O[C@H]([C@H](C)C[C@@H]2CC[C@@H](O)[C@H](OC)C2)CC(=O)[C@H](C)/C=C(\C)[C@@H](O)[C@@H](OC)C(=O)[C@H](C)C[C@H](C)/C=C/C=C/C=C/1C [rapamycin],concentration relative to the solubility of sirolimus in water,[6]; 4 mg/ml PEG 200 formulation,four hundred to about one thousand
same,"in vivo release rate, comparison","[4]; PVDF basecoat with rapamycin and mycophenolic acid, PVDF topcoat, FIG. 56",slower release rate than that of mycophenolic acid
same,peak elution release at three days,"[4]; PVDF/HFP (60/40) and rapamycin basecoat with 167 microgram PVDF/HFP topcoat, curve 4902",greater than seventy-five
same,peak elution release at three days,"[4]; PVDF/HFP (60/40) and rapamycin basecoat with 490 microgram BMA topcoat, curve 4912",less than fifty
same,drug remaining in the drug coating,"[4]; after eight (8) days of implantation, single layer sirolimus/cilostazol EVA/BMA coating with 100 μg BMA overcoat (FIG. 86), FIG. 84",~80%
CC[C@@]1(O)C(=O)OCc2c1cc1n(c2=O)Cc2cc3c(CN(C)C)c(O)ccc3nc2-1 [topotecan],effect of addition on the anti-proliferative rapamycin dose response curve,[1],potentiate the anti-proliferative activity of rapamycin
same,cytotoxicity in cell viability assay,[2]; at concentrations up to one micromolar,non-cytotoxic
"NC(=O)C1=C(O)C[C@@H]2C[C@@H]3Cc4cccc(O)c4C(=O)C3=C(O)[C@]2(O)C1=O [CMT-3, 6-demethyl-6-deoxy-4-dedimethylaminotetracycline]",relative efficacy in suppressing aneurysmal dilatation compared to Dox at the same dose,[5],92%
same,inhibition of aortic dilatation induced by elastase perfusion,[5],statistically significant
"CC1(O)c2c(Cl)ccc(O)c2C(=O)C2=C(O)C3(O)C(=O)C(C(N)=O)=C(O)CC3CC21 (centres unmarked) [CMT-4, 4-dedimethylamino-7-chlorotetra-cycline]",relative efficacy in suppressing aneurysmal dilatation compared to Dox at the same dose,[5],75%
same,inhibition of aortic dilatation induced by elastase perfusion,[5],did not reach statistical significance
4-dedimethylamino-12a-deoxytetracycline [CMT-7],relative efficacy in suppressing aneurysmal dilatation compared to Dox at the same dose,[5],92%
same,inhibition of aortic dilatation induced by elastase perfusion,[5],statistically significant
CO[C@H]1C[C@@H]2CC[C@@H](C)[C@@](O)(O2)C(=O)C(=O)N2CCCC[C@H]2C(=O)O[C@H]([C@H](C)C[C@@H]2CC[C@@H](OC(=O)C(C)(CO)CO)[C@H](OC)C2)CC(=O)[C@H](C)/C=C(\C)[C@@H](O)[C@@H](OC)C(=O)[C@H](C)C[C@H](C)/C=C/C=C/C=C/1C [CCl-779],concentration in the final solution (HPLC assay),"[6]; ethanol (less than two percent), Vitamin E TPGS and water",15000 µg/mL
"Nc1nc(Cl)nc2c1ncn2[C@H]1C[C@H](O)[C@@H](CO)O1 [Cladribine, 2-chlorodeoxyadenosine]",inhibition of human coronary artery smooth muscle cell proliferation,[3]; FIG. 58,completely inhibits
same,effect of addition on the anti-proliferative rapamycin dose response curve,[3],potentiate the anti-proliferative activity of rapamycin
same,"in vivo elution from the polymeric stent coating, comparison","[4]; EVA/BMA basecoat with rapamycin and cladribine, BMA topcoat, FIGS. 62, 63",elutes more rapidly than rapamycin
